Measurements reported in patent US10545133B2, “Molecular signatures of invasive cancer subpopulations” (The Johns Hopkins University, priority 2013, dated 2020).

Key:
Assay type in all cases: cell-based, mouse
[1] = test system: MMTV-PyMT tumor organoids; experiment: Mitosis (pH3) and K14 staining of tumor organoids treated with a mitosis inhibitor; details: aphidicolin 10 mM from day 0, 3D collagen matrix
Text: FIG. 4. Lumenal Tumor Cells Acquire Markers of Basal Differentiation (A) Mouse mammary tumor organoids grown in 3D collagen matrix stained with K8 and K14. (B) Bar graph of percentage of tumor organoids with K8 or K14 intensity equal to or greater than 1+ as a function of time. K14 and K8 intensity was quantified into 0 (no or few), 1 (intermediate), or 2 (bright) K14 signal. Data are presented as mean±SD. For K14: n=719 organoids from 5-8 mice per day; for K8: n=269 organoids from 3 mice per day. (C) Mammary tumor organoids grown in 3D collagen matrix stained with p63 and DAPI. (D) The percentage of organoids with nuclei positive for p63 was counted. Data are presented as mean±SD. n=114 organoids from 2 mice per day. (E) Invasion was quantified by scoring protrusive morphology of cancer cells in contact with the ECM. Data are presented as mean±SD. n=916 organoids from 4-7 mice per day. (F) Tumor organoids treated from day 0 with DMSO vehicle or a mitosis inhibitor (aphidicolin 10 mM) stained with K14, pH3, and DAPI. […] (H) K14 intensity scored in vehicle or aphidicolin. K14 intensity was quantified into 0 (no or few), 1 (intermediate), or 2 (bright) K14 signal. n=110 organoids from 2 mice per condition. […] All p values were determined by two-sided t test. *p<0.05. **p<0.01. ***p<0.001. […]

[2] = test system: K14+ cells; experiment: Doxorubicin challenge of mammary carcinoma cells; details: challenge with doxorubicin
[3] = test system: MMTV-PyMT tumor organoids; experiment: Oxytocin contractility experiment
Text: FIG. 8. Leader Cells Are Molecularly Distinct from Normal Differentiated Myoepithelial Cells and Coexpress Lumenal Epithelial Markers, Related to FIG. 1 (A-C) Leader cells from MMTV-PyMT tumor organoids stained with K14 and K8 (A), K8, p63, and phalloidin (B), or E-cadherin (Ecad) and phalloidin (C). Arrow in (A), a K14+K8+ cell. Arrow in (B), a K8+p63+ cell. 75% of leaders were K14+K8+(n=21/28) and 34% of leaders were K8+p63+(n=22/65). Blue arrows in (C), Ecadherin staining at cell-cell contacts between leader and follower cells. […] Data presented as mean±sd. n=3 normal and tumor organoids. **p<0.01, *p<0.05; p values determined by two-sided t test. […] (G) The reduction in organoid area calculated in (F) provides a proxy for oxytocin-dependent contractility. Organoids were incubated in oxytocin at the specified doses, and the change in area was determined. […] N=23-30 organoids per condition from 3 independent experiments. *p<0.005, […]; p values determined by two-sided t test. […]
Normal mammary epithelial organoids and MMTV-PyMT tumor organoids were embedded in 3D collagen I matrix and cultured in FGF2 organoid media for 4 days. Normal and tumor organoids were then monitored by DIC time-lapse microscopy collecting images every 5 min. […]

C[C@@]1(CO)[C@H](O)CC[C@@]2(C)[C@H]1CC[C@H]1C[C@@H]3C[C@@]12CC[C@]3(O)CO [aphidicolin]
increase in K14+ cells (K14 intensity) [1]: did not prevent an increase in K14+ cells | mitosis (pH3+ nuclei per tumor organoid) [1]: blocked mitosis completely

COc1cccc2c1C(=O)c1c(O)c3c(c(O)c1C2=O)C[C@@](O)(C(=O)CO)C[C@@H]3O[C@H]1C[C@H](N)[C@H](O)[C@H](C)O1 [doxorubicin]
representation of K14+ cells among the intrinsically resistant cells [2]: strongly overrepresented

CC[C@H](C)[C@@H]1NC(=O)[C@H](Cc2ccc(O)cc2)NC(=O)[C@@H](N)CSSC[C@@H](C(=O)N2CCC[C@H]2C(=O)N[C@@H](CC(C)C)C(=O)NCC(N)=O)NC(=O)[C@H](CC(N)=O)NC(=O)[C@H](CCC(N)=O)NC1=O [oxytocin]
time of maximal contraction postincubation ([3]; normal mammary and MMTV-PyMT tumor organoids, oxytocin at nM concentrations): 25 min | contraction of leader cells in response to oxytocin ([3]; oxytocin 5 and 50 nM, 3D collagen I, day 4): did not contract
